The values below are quoted from earlier work in patent publication US20230117508A1, “ENHANCEMENT OF CAMP SIGNALING AS A COMBINATION DRUG STRATEGY FOR THE TREATMENT OF PSYCHIATRIC AND NEUROLOGICAL DISORDERS IN WHICH DEPRESSIVE, ANHEDONIA, MOTIVATION-RELATED OR COGNITION-RELATED DYSFUNCTION EXISTS” (ALTO NEUROSCIENCE, INC., priority 2021, published 2023).

For series [1] the following is noted: in vivo.
For series [2] the following is noted: humans.
Assay in series [3]: not given
This is another data set of the same source.

For series [4] the following is noted: small clinical trials in depression.

Each structure is given as a SMILES string.

In the case of `O=C(Nc1c(Cl)cncc1Cl)c1ccc(OC(F)F)c(OCC2CC2)c1` [Roflumilast], in series [1], the antidepressant effect result is “no evidence of an antidepressant effect” and the cognitive effects entry is “pro-cognitive effects”.

For `CCOC(=O)COc1ccc2c(c1)C[C@@H](NC[C@H](O)c1cccc(Cl)c1)CC2` [amibegron], the “antidepressant-like effects in animals” value is reported as “promising antidepressant-like effects”. In addition, in series [2], the “efficacy in two acute treatment clinical trials for depression” value is “failed to show efficacy”.

For `COc1ccc(C2CNC(=O)C2)cc1OC1CCCC1` (stereo not drawn) [rolipram], the “phenotypes of treated mice” value in series [3] was “antidepressant and pro-cognitive phenotypes”. In addition, the “improvement in depression compared with TCA medications” value in series [4] is listed as “In none of these studies, however, did rolipram produce a greater improvement in depression than the TCA medications”.
